The source of these data is ChEMBL document CHEMBL5331140, “Discovery of IACS-52825, a Potent and Selective DLK Inhibitor for Treatment of Chemotherapy-Induced Peripheral Neuropathy” (J Med Chem, 2023).

SMILES strings stand for the structures. Converted amounts (≈) assume the structure as drawn.

A short description of data set [1]: Volume of distribution at steady state in Beagle dog at 1 mg/kg, po or 0.3 mg/kg, iv measured for 24 hrs by LC-MS/MS analysis. The note with it: in vivo. The class given is ADME, organism-based, Canis lupus familiaris.
Data set [2] is described as follows: AUClast in Sprague-Dawley rat at 3 mg/kg, po or 1 mg/kg, iv measured for 24 hrs by LC-MS/MS analysis. The class given is ADME, organism-based. Also noted: time 24 hrs, dose 3 mg/kg, route po. The note with it: in vivo.
Data set [3] can be described thus: Half life in Beagle dog at 1 mg/kg, po or 0.3 mg/kg, iv measured for 24 hrs by LC-MS/MS analysis. The class given is ADME, organism-based, Canis lupus familiaris. The following applies: in vivo.
For a further data set, the target named is Cytochrome P450 2C9 (Homo sapiens, UniProt P11712). The data set can be described thus: Inhibition of CYP2C9 in human liver microsomes using diclofenac as substrate incubated for 10 mins in presence of NADPH by LC-MS/MS analysis. The class given is ADME, Microsome. (In general: Liver microsomes are a subcellular fraction often used to study metabolism.)
Cytochrome P450 2C9, sequence (P11712 whole entry): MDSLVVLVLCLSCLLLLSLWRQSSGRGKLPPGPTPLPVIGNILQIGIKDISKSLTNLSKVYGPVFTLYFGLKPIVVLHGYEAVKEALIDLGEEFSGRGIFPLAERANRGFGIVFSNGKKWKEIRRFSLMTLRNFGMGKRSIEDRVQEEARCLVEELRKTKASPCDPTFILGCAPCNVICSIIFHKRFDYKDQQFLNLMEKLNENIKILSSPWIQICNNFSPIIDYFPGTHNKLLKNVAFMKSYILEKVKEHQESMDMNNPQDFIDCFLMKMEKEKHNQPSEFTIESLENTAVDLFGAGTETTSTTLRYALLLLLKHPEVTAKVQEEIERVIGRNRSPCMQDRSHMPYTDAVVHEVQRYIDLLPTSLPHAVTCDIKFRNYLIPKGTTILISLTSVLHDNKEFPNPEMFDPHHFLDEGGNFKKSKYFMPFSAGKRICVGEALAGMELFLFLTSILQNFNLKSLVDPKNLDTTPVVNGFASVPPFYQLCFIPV

For data set [4], the target named is Voltage-gated inwardly rectifying potassium channel KCNH2 (Homo sapiens, UniProt Q12809).
Voltage-gated inwardly rectifying potassium channel KCNH2, sequence (Q12809 whole entry): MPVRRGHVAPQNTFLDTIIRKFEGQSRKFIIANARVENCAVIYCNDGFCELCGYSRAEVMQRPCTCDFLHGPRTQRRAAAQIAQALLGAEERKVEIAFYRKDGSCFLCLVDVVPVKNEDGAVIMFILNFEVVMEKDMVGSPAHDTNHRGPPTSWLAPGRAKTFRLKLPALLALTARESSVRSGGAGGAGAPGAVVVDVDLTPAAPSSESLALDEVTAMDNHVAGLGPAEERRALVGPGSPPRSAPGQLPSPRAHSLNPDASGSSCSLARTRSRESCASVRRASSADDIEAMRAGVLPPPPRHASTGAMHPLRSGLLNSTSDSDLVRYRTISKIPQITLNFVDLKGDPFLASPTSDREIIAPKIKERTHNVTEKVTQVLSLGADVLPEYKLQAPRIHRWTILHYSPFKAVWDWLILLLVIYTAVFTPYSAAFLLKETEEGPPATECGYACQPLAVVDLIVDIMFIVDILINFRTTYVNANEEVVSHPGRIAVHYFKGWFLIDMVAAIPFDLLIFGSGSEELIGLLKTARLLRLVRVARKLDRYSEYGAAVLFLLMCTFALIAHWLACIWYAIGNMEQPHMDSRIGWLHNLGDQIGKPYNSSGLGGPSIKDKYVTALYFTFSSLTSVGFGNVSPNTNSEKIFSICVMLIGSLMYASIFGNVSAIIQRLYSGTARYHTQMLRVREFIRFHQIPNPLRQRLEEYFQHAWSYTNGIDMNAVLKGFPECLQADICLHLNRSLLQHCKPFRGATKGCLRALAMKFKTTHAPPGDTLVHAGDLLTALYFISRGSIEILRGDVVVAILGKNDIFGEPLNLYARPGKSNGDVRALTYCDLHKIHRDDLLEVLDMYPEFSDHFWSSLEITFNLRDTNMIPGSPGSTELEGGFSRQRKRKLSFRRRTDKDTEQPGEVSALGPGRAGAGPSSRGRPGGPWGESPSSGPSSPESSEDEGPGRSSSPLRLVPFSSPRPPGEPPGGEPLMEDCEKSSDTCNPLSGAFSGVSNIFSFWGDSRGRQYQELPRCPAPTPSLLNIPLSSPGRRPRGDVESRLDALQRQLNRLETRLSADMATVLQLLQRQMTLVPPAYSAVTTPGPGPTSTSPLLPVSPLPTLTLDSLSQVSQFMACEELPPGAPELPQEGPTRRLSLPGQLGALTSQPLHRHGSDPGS
Description: Inhibition of hERG expressed in CHO cells at -80 mV holding potential by QPatch automated electrophysiology assay
Data set [5] is described as follows: Metabolic stability in dog liver microsomes assessed as intrinsic clearance at 1 uM in presence of NADPH regenerating system measured for 45 mins by LC-MS/MS analysis. The class given is ADME, Canis lupus familiaris, Microsome. The note with it: read-out: CLH.
Data set [6] is described as follows: Metabolic stability in rat liver microsomes assessed as intrinsic clearance at 1 uM in presence of NADPH regenerating system measured for 45 mins by LC-MS/MS analysis. The class given is ADME, Microsome. The following applies: read-out: CLH.
Data set [7] can be described thus: Metabolic stability in mouse hepatocytes assessed as intrinsic clearance at 2 uM measured for 120 mins by LC-MS analysis. The class given is ADME, cell-based, Hepatocyte. The following applies: read-out: CLH.
Data set [8] in a line: Permeability in MDCK-MDR1 cells across basolateral to apical side at 5 uM incubated for 90 mins by LC-MS/MS analysis. The class given is ADME, cell-based, Canis lupus familiaris. The following applies: dog, read-out: permeability.
A short description of data set [9]: Permeability in MDCK-MDR1 cells across apical to basolateral side at 5 uM incubated for 90 mins by LC-MS/MS analysis. The class given is ADME, cell-based, Canis lupus familiaris. The following applies: dog, read-out: permeability.
Data set [10] is described as follows: Toxicity in rat measured after 14 days by IND-enabling study. The note with it: in vivo, 336 h, time 14 day.
The target of data set [11] is T1, Mitogen-activated protein kinase kinase kinase 12 (Homo sapiens, UniProt Q12852).
T1 sequence (Q12852 whole entry): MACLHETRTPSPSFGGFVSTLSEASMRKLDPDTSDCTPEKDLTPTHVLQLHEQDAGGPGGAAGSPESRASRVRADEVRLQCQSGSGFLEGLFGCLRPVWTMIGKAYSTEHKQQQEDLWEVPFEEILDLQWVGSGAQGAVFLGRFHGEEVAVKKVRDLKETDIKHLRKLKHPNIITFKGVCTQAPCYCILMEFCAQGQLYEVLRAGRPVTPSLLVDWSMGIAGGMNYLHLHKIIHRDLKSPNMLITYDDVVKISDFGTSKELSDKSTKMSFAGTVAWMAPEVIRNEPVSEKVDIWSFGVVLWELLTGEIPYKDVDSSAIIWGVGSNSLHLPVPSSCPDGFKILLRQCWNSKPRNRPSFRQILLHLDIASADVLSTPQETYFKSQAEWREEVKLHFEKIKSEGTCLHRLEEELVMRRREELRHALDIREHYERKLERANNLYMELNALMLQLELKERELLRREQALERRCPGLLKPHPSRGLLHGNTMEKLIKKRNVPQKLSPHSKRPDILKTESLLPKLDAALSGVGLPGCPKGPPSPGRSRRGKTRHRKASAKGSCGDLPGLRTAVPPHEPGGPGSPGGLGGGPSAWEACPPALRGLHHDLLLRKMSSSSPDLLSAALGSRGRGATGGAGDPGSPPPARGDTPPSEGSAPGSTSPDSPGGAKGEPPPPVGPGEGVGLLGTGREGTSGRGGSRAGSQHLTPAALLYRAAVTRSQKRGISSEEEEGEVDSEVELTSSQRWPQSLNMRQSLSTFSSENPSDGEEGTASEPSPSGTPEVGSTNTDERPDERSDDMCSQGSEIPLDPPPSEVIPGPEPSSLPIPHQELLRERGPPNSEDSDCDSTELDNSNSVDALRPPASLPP
The data set can be described thus: Inhibition of doxycycline-inducible human DLK transfected in HEK293 cells assessed as reduction in c-Jun phosphorylation at Ser63 residue incubated for 5 hrs. The class given is cell-based.

Data set [12] in a line: Thermodynamic aqueous solubility of compound in phosphate buffer at pH 7 incubated for 1 hr under shaking condition by LC-MS/MS analysis. The class given is physicochemical. The following applies: read-out: Therm_solubility.
Data set [13] can be described thus: Plasma protein binding in monkey at 5 uM incubated for 5 hrs by rapid equilibrium dialysis method. The class given is ADME, cell-free, Macaca mulatta. The note with it: rhesus monkey, read-out: PPB (converted). A general note: In equilibrium dialysis only unbound substance equilibrates across the membrane.
Data set [14] in a line: AUClast in Beagle dog at 1 mg/kg, po or 0.3 mg/kg, iv measured for 24 hrs by LC-MS/MS analysis. The class given is ADME, organism-based, Canis lupus familiaris. Also noted: time 24 hrs, dose 1 mg/kg, route po. The note with it: in vivo.
The nature of data set [15]: Half life in cynomolgus monkey at 1 mg/kg, po or 0.3 mg/kg, iv measured for 24 hrs by LC-MS/MS analysis. The class given is ADME, organism-based, Macaca fascicularis. The following applies: in vivo.
A short description of data set [16]: Toxicity in monkey assessed as optic nerve swelling measured after 28 days by IND-enabling study. Also noted: species or system Macaca mulatta. The note with it: rhesus monkey, in vivo, 672 h; time 28 day.
A short description of data set [17]: Metabolic stability in rat hepatocytes assessed as intrinsic clearance at 2 uM measured for 120 mins by LC-MS analysis. The class given is ADME, cell-based, Hepatocyte. The note with it: read-out: CLH.

In [1], `Nc1ncc(-c2cn(C34CC(F)(C3)C4)c([C@@H](O)C(F)(F)F)n2)cc1OC(F)(F)F` came in with a Vdss of 3.5 L/kg. Also, the AUC(0-t) (commonly exposure summed from dosing to a finite time, without extrapolation to infinity) at 24 h in data set [2] came out at 16.8 µM·h; in data set [14], 15.3 µM·h. For the same compound, the half-life (as a rule, how long it takes for the measured level to halve) in data set [3] was 8.5 h; in [15] it was 7.2 h. Moreover, the IC50 (in general, the midpoint of a concentration-inhibition curve) is > 10 µM at Cytochrome P450 2C9, > 30 µM in data set [4] and 0.107 µM in data set [11]. Further, the CLint scaled at 1 µM was 12 mL/min/kg in data set [5] and 16 mL/min/kg in [6]. In addition, the CLint scaled at 2 µM in data set [7] came to 2.5 mL/min/kg; in [17], 4.4 mL/min/kg. For the same compound, the Papp B→A at 1.5 h, 5 µM in data set [8] amounted to 43 ×10⁻⁶ cm/s. For the same compound, the Papp A→B at 1.5 h, 5 µM in data set [9] amounted to 43 ×10⁻⁶ cm/s. Further, the values for the Activity result in [10] and in data set [16] were “Non-Toxic” and “Toxic”, respectively. The solubility thermodynamic at 1 h in data set [12] worked out at 33 µM (≈ 14.1 µg/mL). Moreover, the fraction unbound at 5 h, 5 µM in data set [13] is 0.139.
